In patent US20220267260A1, “COMPOUNDS CONTAINING A SULFONIC GROUP AS KAT INHIBITORS” (Epizyme, Inc., priority 2016, published 2022):

What was measured:
KAT6A = target: T1, KAT6A (Homo sapiens, UniProt Q92794); experiment: KAT6A enzyme inhibition assay (SAMDI mass spectrometry); assay type: biochemical; settings: His-TEV-KAT6A 501-784 enzyme construct
T1 construct: His-TEV tag (N, cleaved yes); made in house

KAT5 = target: T2, KAT5 (Homo sapiens, UniProt Q92993); experiment: KAT5 enzyme inhibition assay (SAMDI mass spectrometry); assay type: biochemical; settings: His-TEV-FL KAT5-Flag enzyme construct
T2 construct: His-TEV tag (N, cleaved yes); made in house
T2 sequence (Q92993 with tags, fused parts or gaps): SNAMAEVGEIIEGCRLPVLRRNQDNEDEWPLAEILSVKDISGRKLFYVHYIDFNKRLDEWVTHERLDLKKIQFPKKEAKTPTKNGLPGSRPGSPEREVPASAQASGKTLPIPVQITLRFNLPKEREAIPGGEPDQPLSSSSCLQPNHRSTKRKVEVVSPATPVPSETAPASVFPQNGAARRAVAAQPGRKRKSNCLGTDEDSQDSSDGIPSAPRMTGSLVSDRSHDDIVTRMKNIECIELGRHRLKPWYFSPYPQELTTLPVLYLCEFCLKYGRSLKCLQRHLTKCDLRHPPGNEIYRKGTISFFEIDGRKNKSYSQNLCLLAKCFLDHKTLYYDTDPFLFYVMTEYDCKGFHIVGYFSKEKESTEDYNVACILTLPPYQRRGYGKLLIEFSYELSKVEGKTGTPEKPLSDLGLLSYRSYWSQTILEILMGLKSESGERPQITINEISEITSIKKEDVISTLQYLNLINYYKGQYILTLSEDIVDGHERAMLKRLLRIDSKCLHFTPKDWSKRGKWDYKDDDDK

T1 sequence (Q92794 with tags, fused parts or gaps): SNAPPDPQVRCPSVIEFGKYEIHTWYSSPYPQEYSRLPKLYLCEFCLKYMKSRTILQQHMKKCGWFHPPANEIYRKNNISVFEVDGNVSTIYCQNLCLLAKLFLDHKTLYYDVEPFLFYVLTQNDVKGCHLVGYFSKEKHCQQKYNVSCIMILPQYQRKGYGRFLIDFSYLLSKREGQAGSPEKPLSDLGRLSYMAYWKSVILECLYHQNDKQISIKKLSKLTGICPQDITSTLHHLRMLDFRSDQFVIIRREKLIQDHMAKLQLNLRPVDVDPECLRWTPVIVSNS

| SMILES | IC50 (KAT6A) [µM] | IC50 (KAT5) [µM] |
| --- | --- | --- |
| Cc1cc(-c2cccc(F)c2)cc(C(=O)NNS(=O)(=O)CC2CCCN(C(=O)CCN(C)C(=O)OC(C)(C)C)C2)c1F (stereo not shown) [Compound I-331] | ≤ 10 | ≤ 10 |
| O=C(NNS(=O)(=O)C1CCCCC1)c1nc(-c2ccccc2)ccc1F [Compound I-332] | > 100 | > 100 |
| CNCCC(=O)N1CCCC(CS(=O)(=O)NNC(=O)c2cc(-c3ccccc3)cc(C)c2F)C1 (stereo not shown) [Compound I-333] | 10 to 50 | 10 to 50 |
| COCCN1CCCC(C(C)S(=O)(=O)NNC(=O)c2cc(-c3ccccc3)cc(C)c2F)C1 (stereo not shown) [Compound I-334] | 10 to 50 | 10 to 50 |
| CC(=O)N1CCC(CS(=O)(=O)NNC(=O)c2cc(-c3ccccc3)cc(C)c2F)C1 (stereo not shown) [Compound I-335] | ≤ 10 | ≤ 10 |
| COCCN1CCC(CS(=O)(=O)NNC(=O)c2cc(-c3ccccc3)cc(C)c2F)C1 (stereo not shown) [Compound I-336] | 10 to 50 | 10 to 50 |
| Cc1cc(-c2ccccc2)cc(C(=O)NNS(=O)(=O)CC2CCCN(C)C2)c1F (stereo not shown) [Compound I-337] | 10 to 50 | 10 to 50 |
| Cc1cc(C2CCN(C)CC2)cc(C(=O)NNS(=O)(=O)C2CCCCC2)c1F [Compound I-338] | > 100 | > 100 |
| Cc1cc(-c2ccccc2)cc(C(=O)NNS(=O)(=O)CC2CCCN(CCO)C2)c1F (stereo not shown) [Compound I-339] | 10 to 50 | 10 to 50 |
| Cc1cc(-c2cccc(Cl)c2)cc(C(=O)NNS(=O)(=O)c2ccccc2)c1F [Compound I-340] | ≤ 10 | ≤ 10 |
| CC(=O)N1CCC(CS(=O)(=O)NNC(=O)c2cc(-c3ccccc3)cc(C)c2F)CC1 [Compound I-341] | ≤ 10 | ≤ 10 |
| Cc1cc(-c2cccc(Cl)c2)cc(C(=O)NNS(=O)(=O)CC2CCCCC2)c1F [Compound I-342] | 50 to 100 | 50 to 100 |
| Cc1cc(-c2ccccc2)cc(C(=O)NNS(=O)(=O)CC2CCN(CCO)CC2)c1F [Compound I-343] | 10 to 50 | 10 to 50 |
| COCC(=O)N1CCC(CS(=O)(=O)NNC(=O)c2cc(-c3ccccc3)cc(C)c2F)CC1 [Compound I-344] | ≤ 10 | ≤ 10 |
| Cn1cc2c(C(=O)NNS(=O)(=O)c3ccccc3)cc(-c3ccccc3)cc2n1 [Compound I-345] | > 100 | > 100 |
| COCC(=O)N1CCCC(CS(=O)(=O)NNC(=O)c2cc(-c3ccccc3)cc(C)c2F)C1 (stereo not shown) [Compound I-346] | ≤ 10 | ≤ 10 |
| Cc1cc(C)c(F)c(C(=O)NNS(=O)(=O)C2CCCCC2)c1 [Compound I-347] | > 100 | 10 to 50 |
| COc1cccc(-c2cc(C)c(F)c(C(=O)NNS(=O)(=O)C3CCCCC3)c2)c1 [Compound I-348] | 10 to 50 | 10 to 50 |
| Cc1cc(-c2ccccc2)cc(C(=O)NNS(=O)(=O)CC2CCN(C)CC2)c1F [Compound I-349] | 10 to 50 | 10 to 50 |
| COc1cccc(-c2cc(C)c(F)c(C(=O)NNS(=O)(=O)c3ccccc3)c2)c1 [Compound I-350] | ≤ 10 | > 100 |
| Cc1cc(-c2ccccc2)cc(C(=O)NNS(=O)(=O)CC2CCCNC2)c1F (stereo not shown) [Compound I-351] | > 100 | 10 to 50 |
| Cc1cc(-c2ccccc2)cc(C(=O)NNS(=O)(=O)CC2CCCN(C(=O)OC(C)(C)C)C2)c1F (stereo not shown) [Compound I-352] | ≤ 10 | ≤ 10 |
| Cc1cc(-c2cc(F)cc(F)c2)cc(C(=O)NNS(=O)(=O)c2ccccc2)c1F [Compound I-353] | ≤ 10 | ≤ 10 |
| O=C(NNS(=O)(=O)c1ccccc1)c1c(F)cccc1-c1ccccc1 [Compound I-354] | > 100 | > 100 |
| Cc1cc(-c2cc(F)cc(F)c2)cc(C(=O)NNS(=O)(=O)CC2CCCCC2)c1F [Compound I-355] | 10 to 50 | 10 to 50 |
| COCC(=O)N1CCC(CS(=O)(=O)NNC(=O)c2cc(-c3ccccc3)cc(C)c2F)C1 (stereo not shown) [Compound I-356] | ≤ 10 | ≤ 10 |
| Cc1cc(-c2cccc(F)c2)cc(C(=O)NNS(=O)(=O)CC2CCNCC2)c1F [Compound I-357] | > 100 | 50 to 100 |
| Cc1cc(-c2cccc(Cl)c2)cc(C(=O)NNS(=O)(=O)C2CCCCC2)c1F [Compound I-358] | 10 to 50 | ≤ 10 |
| Cc1cc(-c2cccc(F)c2)cc(C(=O)NNS(=O)(=O)CC2CCN(C(=O)OC(C)(C)C)CC2)c1F [Compound I-359] | ≤ 10 | ≤ 10 |

More lines, now with the values ahead:

| IC50 (KAT6A) [µM] | IC50 (KAT5) [µM] | SMILES |
| --- | --- | --- |
| 10 to 50 | 10 to 50 | O=C(NNS(=O)(=O)C1CCCCC1)c1cc(-c2ccccc2)ccc1F [Compound I-360] |
| > 100 | 50 to 100 | Cc1c(-c2ccccc2)ccc(F)c1C(=O)NNS(=O)(=O)Cc1ccccc1 [Compound I-361] |
| ≤ 10 | ≤ 10 | Cc1cc(-c2cccc(F)c2F)cc(C(=O)NNS(=O)(=O)c2ccccc2)c1F [Compound I-362] |
| > 100 | > 100 | Cc1c(C(=O)NNS(=O)(=O)C2CCCCC2)cccc1-c1ccccc1 [Compound I-363] |
| 50 to 100 | 50 to 100 | O=C(NNS(=O)(=O)C1CCCCC1)c1c(F)ccc(-c2ccccc2)c1F [Compound I-364] |
| > 100 | 50 to 100 | Cc1cc(-c2cccc(OCCN(C)C)c2)cc(C(=O)NNS(=O)(=O)CC2CCCCC2)c1F [Compound I-365] |
| 50 to 100 | 10 to 50 | Cc1cc(-c2cccc(Cl)c2F)cc(C(=O)NNS(=O)(=O)CC2CCCCC2)c1F [Compound I-366] |
| 50 to 100 | 50 to 100 | Cc1cc(-c2ccccc2)cc(C(=O)NCc2noc3ccccc23)c1F [Compound I-368] |
| ≤ 10 | ≤ 10 | Cc1cc(-c2ccccc2)cc(C(=O)NNS(=O)(=O)CC2CCCN(C(=O)C(C)C)C2)c1F (stereo not shown) [Compound I-369] |
| > 100 | 10 to 50 | COc1ccccc1-c1cc(C)c(F)c(C(=O)NNS(=O)(=O)CC2CCCCC2)c1 [Compound I-370] |
| ≤ 10 | ≤ 10 | Cc1cc(-c2cccc(F)c2)cc(C(=O)NNS(=O)(=O)c2ccccc2)c1F [Compound I-371] |
| ≤ 10 | ≤ 10 | CCC(=O)N1CCCC(CS(=O)(=O)NNC(=O)c2cc(-c3cccc(F)c3)cc(C)c2F)C1 (stereo not shown) [Compound I-372] |
| 50 to 100 | 50 to 100 | CCc1cccc(-c2cc(C)c(F)c(C(=O)NNS(=O)(=O)CC3CCCCC3)c2)c1 [Compound I-373] |
| 10 to 50 | 10 to 50 | Cc1cc(-c2cccc(C(=O)N(C)C)c2)cc(C(=O)NNS(=O)(=O)CC2CCCCC2)c1F [Compound I-374] |
| 50 to 100 | 50 to 100 | O=C(NNS(=O)(=O)C1CCCCC1)c1cc(-c2ccccc2)cc2[nH]cnc12 [Compound I-375] |
| 10 to 50 | 10 to 50 | Cc1cc(-c2cccc(Cl)c2F)cc(C(=O)NNS(=O)(=O)C2CCCCC2)c1F [Compound I-376] |
| ≤ 10 | ≤ 10 | Cc1cc(-c2cccc(F)c2)cc(C(=O)NNS(=O)(=O)C2CCOCC2)c1F [Compound I-377] |
| > 100 | 50 to 100 | Cc1cc(-c2cccc(C(=O)N(C)C)c2)cc(C(=O)NNS(=O)(=O)C2CCCCC2)c1F [Compound I-378] |

| IC50 (KAT6A) [µM] | IC50 (KAT5) [µM] | SMILES |
| --- | --- | --- |
| ≤ 10 | ≤ 10 | Cc1cc(-c2ccccc2)cc(C(=O)NNS(=O)(=O)CC2CCCN(C(=O)CCN(C)C(=O)OC(C)(C)C)C2)c1F (stereo not shown) [Compound I-379] |
| 50 to 100 | > 100 | Cc1cc(-c2cccc(F)c2F)cc(C(=O)NNS(=O)(=O)CC2CCCCC2)c1F [Compound I-380] |
| 10 to 50 | ≤ 10 | Cc1cc(-c2cccc(F)c2F)cc(C(=O)NNS(=O)(=O)C2CCCCC2)c1F [Compound I-381] |
| 50 to 100 | 50 to 100 | Cc1cc(-c2ccccc2)cc(C(=O)NNS(=O)(=O)C(C)C2CCNCC2)c1F (stereo not shown) [Compound I-382] |
| ≤ 10 | ≤ 10 | Cc1cc(-c2ccccc2)cc(C(=O)NNS(=O)(=O)c2cccc(C(N)=O)c2)c1F [Compound I-383] |
| ≤ 10 | > 100 | Cc1cc(-c2ccc(C(C)C)cc2)cc(C(=O)NNS(=O)(=O)c2ccccc2)c1F [Compound I-384] |
| ≤ 10 | ≤ 10 | Cc1cc(-c2ccccc2)cc(C(=O)NNS(=O)(=O)C(C)C2CCCCC2)c1F (stereo not shown) [Compound I-385] |
| 10 to 50 | > 100 | Cc1cc(-c2cccc(OCCN(C)C)c2)cc(C(=O)NNS(=O)(=O)c2ccccc2)c1F [Compound I-386] |
| > 100 | > 100 | Cc1c(-c2ccccc2)ccc(F)c1C(=O)NCC(=O)NC(Cc1ccccc1)C(C)C (stereo not shown) [Compound I-387] |
| ≤ 10 | ≤ 10 | CC(=O)N1CCC(CS(=O)(=O)NNC(=O)c2cc(-c3cccc(F)c3)cc(C)c2F)CC1 [Compound I-388] |
| 10 to 50 | 10 to 50 | CNCCC(=O)N1CCC(CS(=O)(=O)NNC(=O)c2cc(-c3cccc(F)c3)cc(C)c2F)CC1 [Compound I-389] |
| ≤ 10 | ≤ 10 | O=C(NNS(=O)(=O)C1CCCCC1)c1cc(-c2ccccc2F)cc(Cl)c1F [Compound I-390] |
| > 100 | ≤ 10 | COc1cc(C)c(F)c(C(=O)NNS(=O)(=O)C2CCCCC2)c1 [Compound I-391] |
| 10 to 50 | ≤ 10 | O=C(NNS(=O)(=O)C1CCCCC1)c1cc(-c2cc(F)cc(F)c2)cc(Cl)c1F [Compound I-392] |
| > 100 | ≤ 10 | COc1cc(Cl)c(F)c(C(=O)NNS(=O)(=O)C2CCCCC2)c1 [Compound I-393] |
| 10 to 50 | ≤ 10 | COc1cc(Cl)c(F)c(C(=O)NNS(=O)(=O)CC2CCCCC2)c1 [Compound I-394] |
| ≤ 10 | ≤ 10 | O=C(NNS(=O)(=O)C1CCCCC1)c1cc(-c2cccc(F)c2)cc(Cl)c1F [Compound I-395] |
| ≤ 10 | ≤ 10 | CC(C)(C)OC(=O)N1CCCC(CS(=O)(=O)NNC(=O)c2cc(-c3cccc(F)c3)cc(Cl)c2F)C1 (stereo not shown) [Compound I-396] |
